According to patent US20020137929A1, “1 - (3-heterocyclylphenyl) isothiourea, -isourea, -guanidine and -amidine herbicidal agents” (Intellectual Property Department, BASF Aktiengesellschaft, priority 1998, published 2002):

What was measured:
AMBEL (Ragweed, Common) [1] = assay: Postemergence herbicidal evaluation; assay type: in vivo, Ambrosia artemisifolia; details: postemergence
Outline: (§1)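 Herbicidal effect was judged by eye on a 0–9 scale covering stand, vigor, deformity, size and chlorosis, compared with controls, four to five weeks after seedlings about two weeks old were sprayed (40 psi, ~0.0156–0.500 kg/ha).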

[2] = tested on: CHEAL (Lambsquarters, Common); assay: Preemergence herbicidal evaluation; assay type: in vivo, Chenopodium album; details: rated 4-5 weeks after treatment
Description: (§2) Results of herbicide evaluation are expressed on a rating scale (0-9). The scale is based upon a visual observation of plant stand, vigor, malformation, size, chlorosis and overall plant appearance as compared with a control.
(§3) The preemergence herbicidal activity of the test compounds of the present invention is exemplified by the following tests in which the seeds of a variety of monocotyledonous and dicotyledonous plants are separately mixed with potting soil and planted on top of approximately one inch of soil in separate pint cups. After planting, the cups are sprayed with the selected aqueous acetone solution containing test compound in sufficient quantity to provide the equivalent of about 0.0156 to 0.500 kg per hectare of test compound per cup. The treated cups are then placed on greenhouse benches, watered and cared for in accordance with conventional greenhouse procedures. From four to five weeks after treatment, the tests are terminated and each cup is examined and rated according to the rating system provided in Example 37.
(§4) The compounds evaluated are reported by compound number given in Example 37.

[3] = tested on: CHEAL (Lambsquarters, Common); assay: Postemergence herbicidal evaluation; assay type: in vivo, Chenopodium album; details: postemergence
Protocol: (§5) In the tests, seedling plants are grown in jiffy flats for about two weeks. The test compounds are dispersed in 50/50 acetone/water mixtures containing 0.5% TWEEN®20, a polyoxyethylene sorbitan monolaurate surfactant of Atlas Chemical Industries, in sufficient quantities to provide the equivalent of about 0.0156 kg to 0.500 kg per hectare of active compound when applied to the plants through a spray nozzle operating at 40 psi for a predetermined time. After spraying, the plants are placed on greenhouse benches and are cared for in accordance with conventional greenhouse procedures. From four to five weeks after treatment, the seedling plants are examined and rated according to the rating system set forth below. Where more than one test is involved for a given compound, the data are averaged.
(§6) Plant species employed in these evaluations are reported by header abbreviation, common name and scientific name.
as §2

MOOVA (Monochoria) = assay: Preemergence weed control under flooded paddy conditions; assay type: in vivo, Monochoria vaginalis; details: rated 3-4 weeks after treatment
Outline: (§7)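 Using flooded silt loam (water 1.5 to 3 cm deep), seeds sown in the top 0.5 cm were exposed preemergence to compound pipetted into the flood at about 0.0313 to 0.500 kg/ha. Effects were scored 0-9 by eye three to four weeks later.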

AMBEL (Ragweed, Common) [4] = assay: Preemergence herbicidal evaluation; assay type: in vivo, Ambrosia artemisifolia; details: rated 4-5 weeks after treatment
Description: as §2, §3, §4

CASOB (Sicklepod) [5] = assay: Postemergence herbicidal evaluation; assay type: in vivo, Cassia obtusifolia; details: postemergence
Outline: as §1

[6] = tested on: GLXMAW (Soybean, Williams); assay: Preemergence herbicidal evaluation; assay type: in vivo, Glycine max, (L.) Merr. cv Williams; details: rated 4-5 weeks after treatment
Description: as §2, §3, §4

[7] = tested on: SAGPY (Arrowhead (Pygmaea)); assay: Preemergence weed control under flooded paddy conditions; assay type: in vivo, Sagittaria pygmaea; details: rated 3-4 weeks after treatment
Outline: as §7

[8] = tested on: GLXMAW (Soybean, Williams); assay: Postemergence herbicidal evaluation; assay type: in vivo, Glycine max, (L.) Merr. cv Williams; details: postemergence
Outline: as §1

ABUTH (Velvetleaf) = assay: Preemergence herbicidal evaluation; assay type: in vivo, Abutilon theophrasti; details: rated 4-5 weeks after treatment
Description: as §2, §3, §4

ORYSAT (Rice, Tebonnet) = assay: Preemergence herbicidal evaluation; assay type: in vivo, Oryza sativa, (L.) Tebonnet; details: rated 4-5 weeks after treatment
Description: as §2, §3, §4

[9] = tested on: TRZAWR (Wheat, Winter, cv Riband); assay: Postemergence herbicidal evaluation; assay type: in vivo, Triticum aestivum; details: postemergence
Protocol: as §5, §6, §2

CASOB (Sicklepod) [10] = assay: Preemergence herbicidal evaluation; assay type: in vivo, Cassia obtusifolia; details: rated 4-5 weeks after treatment
Description: as §2, §3, §4

ECHCG (Barnyardgrass) = assay: Postemergence herbicidal evaluation; assay type: in vivo, Echinochloa crus-galli; details: postemergence
Protocol: as §5, §6, §2

Structure (SMILES): C=CCN1C(=O)CSC1=Nc1cc(N2C(=O)C3=C(CCCC3)C2=O)c(F)cc1Cl [Compound 2, N-{5-[(3-allyl-4-oxo-2-thiazolidinylidene)amino]-4-chloro-2-fluorophenyl}-1-cyclohexene-1,2-dicarboximide]
- AMBEL herbicidal rating (AMBEL (Ragweed, Common) [1]; rate 0.0157 kg/ha): 4.0
- AMBEL herbicidal rating (AMBEL (Ragweed, Common) [1]; rate 0.0313 kg/ha): 2.0
- AMBEL herbicidal rating (AMBEL (Ragweed, Common) [1]; rate 0.0625 kg/ha): 6.0
- AMBEL herbicidal rating (AMBEL (Ragweed, Common) [1]; rate 0.1250 kg/ha): 2.0
- AMBEL herbicidal rating (AMBEL (Ragweed, Common) [1]; rate 0.2500 kg/ha): 6.0
- AMBEL herbicidal rating (AMBEL (Ragweed, Common) [1]; rate 0.5000 kg/ha): 9.0
- CHEAL preemergence herbicidal rating ([2]; rate 0.0313 kg/ha): 7.0
- CHEAL preemergence herbicidal rating ([2]; rate 0.2500 kg/ha): 9.0
- CHEAL preemergence herbicidal rating ([2]; rate 0.5000 kg/ha): 9.0
- CHEAL herbicidal rating ([3]; rate 0.0157 kg/ha): 7.0
- CHEAL herbicidal rating ([3]; rate 0.0313 kg/ha): 6.0
- CHEAL herbicidal rating ([3]; rate 0.0625 kg/ha): 8.0
- CHEAL herbicidal rating ([3]; rate 0.1250 kg/ha): 9.0
- CHEAL herbicidal rating ([3]; rate 0.2500 kg/ha): 7.0
- CHEAL herbicidal rating ([3]; rate 0.5000 kg/ha): 9.0
- Herbicidal rating MOOVA (MOOVA (Monochoria); 0.0313 kg/ha): 4.0
- Herbicidal rating MOOVA (MOOVA (Monochoria); 0.0625 kg/ha): 9.0
- Herbicidal rating MOOVA (MOOVA (Monochoria); 0.1250 kg/ha): 9.0
- Herbicidal rating MOOVA (MOOVA (Monochoria); 0.2500 kg/ha): 9.0
- Herbicidal rating MOOVA (MOOVA (Monochoria); 0.5000 kg/ha): 9.0
- AMBEL preemergence herbicidal rating (AMBEL (Ragweed, Common) [4]; rate 0.0313 kg/ha): 0.0
- AMBEL preemergence herbicidal rating (AMBEL (Ragweed, Common) [4]; rate 0.0625 kg/ha): 0.0
- AMBEL preemergence herbicidal rating (AMBEL (Ragweed, Common) [4]; rate 0.1250 kg/ha): 0.0
- AMBEL preemergence herbicidal rating (AMBEL (Ragweed, Common) [4]; rate 0.2500 kg/ha): 0.0
- AMBEL preemergence herbicidal rating (AMBEL (Ragweed, Common) [4]; rate 0.5000 kg/ha): 0.0
- CASOB herbicidal rating (CASOB (Sicklepod) [5]; rate 0.0157 kg/ha): 4.0
- CASOB herbicidal rating (CASOB (Sicklepod) [5]; rate 0.0313 kg/ha): 4.0
- CASOB herbicidal rating (CASOB (Sicklepod) [5]; rate 0.0625 kg/ha): 2.0
- CASOB herbicidal rating (CASOB (Sicklepod) [5]; rate 0.1250 kg/ha): 2.0
- CASOB herbicidal rating (CASOB (Sicklepod) [5]; rate 0.2500 kg/ha): 4.0
- CASOB herbicidal rating (CASOB (Sicklepod) [5]; rate 0.5000 kg/ha): 7.0
- GLXMAW preemergence herbicidal rating ([6]; rate 0.0313 kg/ha): 0.0
- GLXMAW preemergence herbicidal rating ([6]; rate 0.0625 kg/ha): 0.0
- GLXMAW preemergence herbicidal rating ([6]; rate 0.1250 kg/ha): 0.0
- GLXMAW preemergence herbicidal rating ([6]; rate 0.2500 kg/ha): 0.0
- GLXMAW preemergence herbicidal rating ([6]; rate 0.5000 kg/ha): 1.0
- Herbicidal rating SAGPY ([7]; 0.0313 kg/ha): 0.0
- Herbicidal rating SAGPY ([7]; 0.0625 kg/ha): 0.0
- Herbicidal rating SAGPY ([7]; 0.1250 kg/ha): 0.0
- Herbicidal rating SAGPY ([7]; 0.2500 kg/ha): 0.0
- Herbicidal rating SAGPY ([7]; 0.5000 kg/ha): 0.0
- GLXMAW herbicidal rating ([8]; rate 0.0157 kg/ha): 3.5
- GLXMAW herbicidal rating ([8]; rate 0.0313 kg/ha): 3.5
- GLXMAW herbicidal rating ([8]; rate 0.0625 kg/ha): 3.5
- GLXMAW herbicidal rating ([8]; rate 0.1250 kg/ha): 3.0
- GLXMAW herbicidal rating ([8]; rate 0.2500 kg/ha): 3.0
- GLXMAW herbicidal rating ([8]; rate 0.5000 kg/ha): 3.0
- ABUTH preemergence herbicidal rating (ABUTH (Velvetleaf); rate 0.0313 kg/ha): 0.0
- ABUTH preemergence herbicidal rating (ABUTH (Velvetleaf); rate 0.0625 kg/ha): 0.0
- ABUTH preemergence herbicidal rating (ABUTH (Velvetleaf); rate 0.5000 kg/ha): 4.0
- ORYSAT preemergence herbicidal rating (ORYSAT (Rice, Tebonnet); rate 0.0313 kg/ha): 2.0
- ORYSAT preemergence herbicidal rating (ORYSAT (Rice, Tebonnet); rate 0.0625 kg/ha): 2.0
- ORYSAT preemergence herbicidal rating (ORYSAT (Rice, Tebonnet); rate 0.1250 kg/ha): 2.0
- ORYSAT preemergence herbicidal rating (ORYSAT (Rice, Tebonnet); rate 0.2500 kg/ha): 2.0
- ORYSAT preemergence herbicidal rating (ORYSAT (Rice, Tebonnet); rate 0.5000 kg/ha): 3.0
- TRZAWR herbicidal rating ([9]; rate 0.0157 kg/ha): 1.5
- TRZAWR herbicidal rating ([9]; rate 0.0313 kg/ha): 2.5
- TRZAWR herbicidal rating ([9]; rate 0.0625 kg/ha): 3.0
- TRZAWR herbicidal rating ([9]; rate 0.1250 kg/ha): 2.5
- TRZAWR herbicidal rating ([9]; rate 0.2500 kg/ha): 2.5
- TRZAWR herbicidal rating ([9]; rate 0.5000 kg/ha): 3.0
- CASOB preemergence herbicidal rating (CASOB (Sicklepod) [10]; rate 0.0313 kg/ha): 2.0
- CASOB preemergence herbicidal rating (CASOB (Sicklepod) [10]; rate 0.0625 kg/ha): 2.0
- CASOB preemergence herbicidal rating (CASOB (Sicklepod) [10]; rate 0.5000 kg/ha): 2.0
- ECHCG herbicidal rating (ECHCG (Barnyardgrass); rate 0.0157 kg/ha): 0.0
- ECHCG herbicidal rating (ECHCG (Barnyardgrass); rate 0.0313 kg/ha): 0.0
- ECHCG herbicidal rating (ECHCG (Barnyardgrass); rate 0.0625 kg/ha): 0.0
- ECHCG herbicidal rating (ECHCG (Barnyardgrass); rate 0.1250 kg/ha): 0.0
- ECHCG herbicidal rating (ECHCG (Barnyardgrass); rate 0.2500 kg/ha): 0.0
- ECHCG herbicidal rating (ECHCG (Barnyardgrass); rate 0.5000 kg/ha): 0.0
